Experimental data taken from patent US7232809B2, “Mitochondrially targeted antioxidants” (Antipodean Pharmaceuticals, Inc., priority 1997, dated 2007).

What was measured:
rat brain homogenates = assay: Inhibition of lipid peroxidation in rat brain homogenates (TBARS assay); type: biochemical; details: TBARS, read-out: concentration that inhibited oxidative stress by 50%
Method: The rat brain homogenates were incubated with or without various concentrations of the test compounds (compound 1; native Vitamin E (α-tocopherol), bromobutyl triphenylphosphonium bromide, Trolox (a water soluble form of Vitamin E) and compound 2, ie2-(2-bromoethyl)-3,4-dihydro-2,5,7,8-tetramethyl-2H-1-benzopyran-6-ol, the precursor of compound 1 (“Brom Vit E”)) and the oxidative damage occurring over the incubation was quantitated using the TBARS assay (Stocks et al., 1974, Clin Sci Mol Med 47,215–222). From this the concentration of compound required to inhibit oxidative damage by 50% was determined. In this system 210 nM compound 1 inhibited oxidative stress by 50% while the corresponding value for native Vitamin E was 36 nM. The value for bromobutyltriphenylphosphonium bromide, which contains the triphenylphosphonium moiety but not the antioxidant Vitamin E moiety was 47 μM. […] Further details of the experimental procedures and results are set out below.
(§1) The IC50 values for inhibition of lipid peroxidation were determined in rat brain homogenates, and are means±SEM or range of determinations on 2–3 brain preparations. Octan-1-ol/PBS partition coefficients are means±SEM for three independent determinations. N.D. not determined. Partition coefficients were determined by mixing 200 μM of the compound in 2 ml water-saturated octanol-1-ol with 2 ml octanol-saturated-PBS at room temperature for 1 h, then the two layers were separated by brief centrifugation and their concentrations determined spectrophotometrically from standard curves prepared in PBS or octanol. To measure antioxidant efficacy four rat brains were homogenised in 15 ml 40 mM potassium phosphate (pH 7.4), 140 mM NaCl at 4° C., particulate matter was pelleted (1,000×g at 4° C. for 15 min) and washed once and the combined supernatants stored frozen. Aliquots were rapidly thawed and 5 mg protein suspended in 800 μl PBS containing antioxidant or ethanol carrier and incubated at 37° C. for 30 min. Thiobarbituric acid reactive species (TBARS) were quantitated at 532 nm by adding 200 μl conc. HClO4 and 200 μl 1% thiobarbituric acid to the incubation, heating at 100° C. for 15 min and then cooling and clarification by centrifugation (10,000×g for 2 min).

[1] = Octan-1-ol/PBS partition coefficient; type: physicochemical; details: 200 μM, room temperature, 1 h, means±SEM of three
Method: as §1

rat liver mitochondria [2] = assay: Protection of mitochondria against oxidative damage (TBARS, protein carbonyls); type: biochemical
Method: Mitochondria were exposed to oxidative stress by incubation with iron/ascorbate and the effect of compound 1 on oxidative damage assessed by measuring TBARS (filled bars) and protein carbonyls (open bars). Rat liver mitochondria (10 mg protein) were incubated at 25° C. in a shaking water bath in 2 ml medium containing 100 mM KCl, 10 mM Tris, pH 7.7, supplemented with rotenone (1.33 μg/ml), 10 mM succinate, 500 μM ascorbate and other additions. After preincubation for 5 min, 100 μM FeSO4 was added and 45–55 min later duplicate samples were removed and assayed for TBARS or protein carbonyls.
Energised rat liver mitochondria were exposed to tert-butylhydroperoxide and the effect of compound 1 (filled bars), α-tocopherol (open bars), compound 1+333 nM FCCP (stippled bars) or the simple lipophilic cation bromobutyl triphenylphosphonium (cross hatched bars) on TBARS formation determined.

rat liver mitochondria [3] = assay: Protection of mitochondrial function (membrane potential) from iron/ascorbate oxidative damage; type: biochemical; details: 5 μM, compared with Vitamin E
Method: Energised rat liver mitochondria were incubated with iron/ascorbate with no additions (stippled bars), 5 μM compound 1 (filled bars), 5 μM α-tocopherol. (open bars) or 5 μM TPMP (cross hatched bars), and then isolated and the membrane potential generated by respiratory substrates measured relative to control incubations in the absence of iron/ascorbate. Rat liver mitochondria were incubated at 25° C. in a shaking water bath in 2 ml medium containing 100 mM KCl, 10 mM Tris, pH 7.7, supplemented with rotenone (1.33 μg/ml), 10 mM succinate, 500 μM ascorbate and other additions. […] TPMP either 10 mM glutamate and malate, 10 mM succinate and rotenone, or 5 mM ascorbate/100 μM TMPD with rotenone and myxothiazol (2 μg/ml), incubated at 25° C. for 3 min then pelleted and the membrane potential determined as above and compared with an incubation that had not been exposed to oxidative stress.

143B cells [4] = assay: Uptake of compound 1 by intact cells; type: cell-based, human
Method: The mitochondrial specific accumulation of compound 1 also occurs in intact cells. This was measured as described by Burns and Murphy, 1997 and the accumulation was prevented by dissipating both the mitochondrial and plasma membrane potentials. […] Therefore the accumulation of compound 1 into cells is driven by the mitochondrial membrane potential.
(§2) The next step was to determine whether compound 1 was accumulated by intact cells. […] A proportion of this uptake of compound 1 into cells was inhibited by blocking the plasma and mitochondrial membrane potentials (FIG. 9). This energisation-sensitive uptake corresponds to an intra mitochondrial concentration of compound 1 of about 2–4 mM, which is sufficient to protect mitochondria from oxidative damage.
Here 10^6 143B cells (closed symbols) or ρ° cells (open symbols) were incubated with 1 μM [3H] compound 1 and the compound 1 accumulation ratio determined. Human osteosarcoma 143B cells and a derived ρ° cell line lacking mitochondrial DNA were cultured in DMEM/10% FCS (foetal calf serum) supplemented with uridine and pyruvate under an atmosphere of 5% CO2/95% air at 37° C., grown to confluence and harvested for experiments by treatment with trypsin. To measure [^3H] compound 1 accumulation cells (10^6) were incubated in 1 ml HEPES-buffered DMEM. At the end of the incubation, cells were pelleted by centrifugation, the cell pellet and the supernatant prepared for scintillation counting and the accumulation ratio [compound 1/mg protein)/(compound 1/μl)]calculated.
Human osteosarcoma 143B cells were incubated in 1 ml HEPES-buffered DMEM with 1-50 μM compound 1 supplemented with 6–60 nCi/ml [^3H] compound 1. To determine the energistration-dependent uptake, parallel incubations with 12.5 μM oligomycin, 20 μM FCCP; 10 μM myxathiazol. 100 nM valinomycin and 1 mM ouabain were carried out. At the end of the incubation, cells were pelleted by centrifugation and prepared for scintillation counting and the energisation-sensitive uptake determined.

143B cells [5] = assay: Cell viability by lactate dehydrogenase release; type: cell-based, human; details: 24 h, LDH release, concentrations giving 2–4 mM intramitochondrial
Method: as §2
Here, confluent 143B cells in 24 well tissue culture dishes were incubated with various concentrations of compound 1 for 24 h and cell viability measured by lactate dehydrogenase release.

rat liver mitochondria [6] = assay: Uptake of [3H] compound 1 by energised rat liver mitochondria
rat liver mitochondria [7] = assay: Effect of compound 1 on membrane potential and respiration rate of isolated mitochondria; details: at the concentrations that afford protection
Method: TPMP at 25° C. for 3 min. After the incubation mitochondria were pelleted by centrifugation and the [^3H] TPMP in the supernatant and pellet quantitated by scintilation counting and the membrane potential calculated assuming a volume of 0.5 μl/mg proteins and that 60% of intramitochondrial TPMP is membrane bound.

Cc1c(C)c2c(c(C)c1O)CCC(C)(CC[P+](c1ccccc1)(c1ccccc1)c1ccccc1)O2 (centres unmarked) [compound 1]
IC50 (rat brain homogenates): 210 nM | Octanol:PBS partition coefficient [1]: 7.37 ± 1.56 | protection of mitochondria against oxidative damage (lipid peroxidation and protein carbonyl formation) (rat liver mitochondria [2]; mitochondria exposed to oxidative stress): protected them against oxidative damage | antioxidant protection with uncoupler FCCP (rat liver mitochondria [2]; mitochondria incubated with FCCP to prevent uptake): prevented | protection of mitochondrial function (ability to generate a membrane potential) (rat liver mitochondria [3]): far more effectively than Vitamin E itself | intra mitochondrial concentration from energisation-sensitive uptake (143B cells [4]; 143B cells, 1 h incubation): 2 to 4 mM | accumulation by cells containing defective mitochondria (143B cells [4]; cells without mitochondrial membrane potential): not accumulated | accumulation by intact cells (143B cells [4]; intact 143B cells): rapidly accumulated | toxicity to cells (143B cells [5]): not toxic to cells | time for reversal of accumulation by FCCP (rat liver mitochondria [6]; FCCP added after accumulation): < 10 s | effect of uncoupler FCCP on accumulation into mitochondria (rat liver mitochondria [6]; addition of FCCP): blocked | time for uptake into mitochondria (rat liver mitochondria [6]; energised rat liver mitochondria): < 10 s | accumulation ratio into mitochondria (rat liver mitochondria [6]; energised rat liver mitochondria, membrane potential about 180 mV): about 6,000 | proportion membrane-bound within mitochondria (rat liver mitochondria [6]; inferred from uptake of TPMP and compound 1 at the same membrane potential): about 84% | intramitochondrial concentration (rat liver mitochondria [6]; isolated mitochondria, range of concentrations of compound 1 (FIG. 2)): 4 to 8 mM | slope of accumulation ratio of compound 1 relative to that of TPMP (rat liver mitochondria [6]; range of membrane potentials, 10 μM compound 1, 1 μM TPMP, 3 min): 2.472 | damage to mitochondria (rat liver mitochondria [7]): not damaging to mitochondria
